The data set can be described thus: Photolysis of thin films in petroleum jelly on quartz plates under a UV photolysis lamp. The class given is physicochemical. As for the experimental part:
A UV photolysis lamp having a light flux of 320 mW equipped with a cutoff filter at 270-280 nm was used to evaluate the performance and stability of the sunscreen compositions prepared herein. With 3 min of exposure to the UV lamp (same position as sample, after the filter), a clear damage was observed on human skin. Typically, under hot sun, this sunburn process takes 30 min to an hour. Accordingly, the photolysis lamp used for analysis is considerably more intense than natural sunlight.
FIGS. 4A and 4B compare the stability of avobenzone dispersed in petroleum jelly with avobenzone encapsulated in encapsulated in zeolite nanoparticles (10% zeolite, 1% AB) dispersed in petroleum jelly.
FIG. 7 is a plot showing the long-term stability of avobenzone/nanozeolite formulations. The absorption spectra of a thin film of avobenzone encapsulated in zeolite nanoparticles (10% zeolite, 1% AB) dispersed in petroleum jelly on quartz plates was obtained following 0, 3, 5, and 12 hours of irradiation using a UV photolysis lamp.

Data on one molecule can be found in patent US20230381069A1, “TOPICAL COMPOSITIONS AND METHODS OF USING THEREOF” (OHIO STATE INNOVATION FOUNDATION, priority 2016, published 2023).

With `COc1ccc(C(=O)CC(=O)c2ccc(C(C)(C)C)cc2)cc1` [avobenzone], the “AB decomposition in the presence of 1% OMC (octinoxate)” value (petroleum jelly, photolysis for 4 hours, FIGS. 8A/8B) was “AB decomposition was observed after the first hour of photolysis”. The “degradation of avobenzone via UV spectroscopy (long-term stability)” value (thin film in petroleum jelly, 0, 3, 5 and 12 hours of irradiation, FIG. 7) is listed as “complete degradation of the avobenzone was observed within four hours”.
